The text below walks through data of patent US12416009B2, “Methods and compositions for the modification of plants” (Flagship Pioneering Innovations VI, LLC, priority 2018, dated 2025).

One series concerns plants. Particulars: Culiarez-Mac et al, Plant Growth Regulation 1987; cited from earlier work.
The test system of series [1] is Arabidopsis thaliana seedlings. The series is described as follows: Cytotoxicity of free DOX and DOX-loaded PMPs in Arabidopsis thaliana seedlings. It counts as in vivo, Arabidopsis thaliana Col-0. Particulars: 100 μM DOX dose; 24 hours exposure, then 3 days; 7-day old seedlings. The protocol:
Grapefruit PMPs were produced and loaded with doxorubicin as described in Examples 16a and 16b. Wild type Arabidopsis thaliana Col-0 seeds were obtained from the ABRC, surface sterilized with 50% bleach, stratified for 1-3 d at 4° C., and germinated on half-strength (0.5×) Murashige and Skoog (MS) medium supplemented with 0.5% sucrose, 2.5 mM MES, pH 5.6, containing 0.8% agar, with a photoperiod of 16 h light 23° C./8 h dark 21° C.
To test whether PMPs can deliver a small molecule cargo in planta, 7-day old Arabidopsis thaliana seedlings were transferred to 0.5× liquid MS medium in a 24 well plate (1 seedling per well), and treated with free DOX or DOX-loaded PMPs with an encapsulated DOX dose of 0 (negative control), 25 μM, 50 μM and 100 μM. The plate was covered with aluminum foil and incubated for 24 hours. DOX-containing medium was removed, the seedlings were washed two times with ½×MS medium, and fresh medium was added. Seedlings were incubated for an additional 3 days under a normal photoperiod (16 h light 23° C./8 h dark 21° C.). Next, seedlings were removed from the plate and towel-dried for imaging and cytotoxicity was assessed by analyzing leaf vigor, leaf color and root length. Cytotoxicity is defined by shortening of the roots, loss of leaf vigor, and leaf discoloration (yellow instead of green) when compared to an untreated seedling control.

Series [2] relates to Triticum aestivum cell line. The series is described as follows: Uptake of AF488-labeled lemon PMPs by plant cells (epifluorescence microscopy). Type of series: cell-based. To be noted: 1×10^12 AF488-PMPs/mL, 2 hours at 24° C. The protocol: (§1) Plant cell lines were purchased from the Deutsche Sammlung von Mikroorganismen und Zellkulturen (DSMZ) (Glycine max, #PC-1026; Triticum aestivum, #PC-998) and ABRC (Zea mays, Black Mexican sweet (BMS), and were grown in baffled vented 250 mL flasks in the dark, at 24° C. with agitation (110 rpm). Glycine max and Triticum aestivum were grown in 3.2 g/L Gamborg's B-5 Basal Medium with Minimal Organics supplemented (G5893, Millipore Sigma) pH 5.5, supplemented with 2% sucrose, and 2 mg/L 2,4-dichlorophenoxyacetic acid (2,4D) (D7299, Millipore Sigma) according to the supplier's instructions. BMS cells were grown in Murashige and Skoog basal medium pH 5.8, containing 4.3 g/L Murashige and Skoog Basal Salt Mixture (Sigma M5524), 2% sucrose (S0389, Millipore Sigma), 1×MS vitamin solution (M3900, Millipore Sigma), 2 mg/L 2,4-dichlorophenoxyacetic acid (D7299, Millipore Sigma) and 250 ug/L thiamine HCL (V-014, Millipore Sigma).
(§2) For treatment with AF488-PMPs, 5 mL of the cell suspensions was taken to determine the percent Pack Cell Volume (PCV). The PCV is defined as the volume of cells divided by the total volume of the cell culture aliquot, and expressed as a percentage. Cells were centrifuged for 5 min at 3900 rpm, and the volume of the cell pellet was determined. The % PCV for BMS, Glycine max, and Triticum aestivum were 20%, 15%, and 18%, respectively. For the uptake experiment, the % PCV of the cultures was adjusted to 2%, by diluting cells in their appropriate medium. Next, 125 μl of the plant cell suspensions was added to a 24 well plate, and duplicate samples were treated with 125 μl MES buffer (200 mM MES+10 mM NaCl, pH6) alone (negative control), AF488 dye only (dye only control) or a final concentration of 1×10^12 AF488-PMPs/mL diluted in MES buffer to 125 μl. Cells were incubated for 2 hours at 24° C. in the dark, washed three times with 1 mL MES buffer to remove AF488-PMPs or free dye that had not been taken up, and resuspended in 300 μL of MES buffer for imaging on an epifluorescence microscope (EVOS FL Auto 2, Invitrogen).

For series [3], the system named is Zea mays Black Mexican sweet (BMS) cells. The description is as above. It counts as cell-based. Particulars: 1×10^12 AF488-PMPs/mL, 2 hours at 24° C. The procedure: as §1, §2
The next series concerns Glycine max cell line. The series is described as above. Type of series: cell-based. To be noted: 1×10^12 AF488-PMPs/mL, 2 hours at 24° C. The procedure:
as §1, §2

With `COc1cccc2c1C(=O)c1c(O)c3c(c(O)c1C2=O)C[C@@](O)(C(=O)CO)C[C@@H]3O[C@H]1C[C@H](N)[C@H](O)[C@H](C)O1` [free DOX, doxorubicin], in the series on plants, the cytotoxicity in plants entry was “cytotoxic in plants”. Moreover, the “cytotoxicity (root shortening, loss of leaf vigor, leaf discoloration)” value in series [1] was “root shortening and leaf discoloration”.
As for “Alexa Fluor 488® NHS Ester [AF488 dye only]”, the “AF488 fluorescence signal in cells (PMP uptake)” value (in series [2]; in series [3]; in the series with Glycine max cell line) was “no detectable fluorescence” in each case.
